In ChEMBL document CHEMBL1201862, “PubChem BioAssay data set” (2004):
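1) Cells in 96-well plates. 2) Compound, 48 h, 5 concentrations. 3) Linear interpolation between surrounding doses. 4) Unreached endpoint = highest concentration. GI50 is the concentration that inhibits growth by half.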 Activity calls are given as the source filed them. No stated cut-off is given here; in the data, active = GI50 up to about 1.1 µM and inactive = higher.

Columns and labels:
Assay in all cases: NCI tumour cell line growth inhibition, 48 h
HOP-18 = system: HOP-18
M19-MEL = system: M19-MEL
KM-20L2 = system: KM-20L2
DMS-273 = system: DMS-273
XF498 = system: XF498
DMS-114 = system: DMS-114
LXFL 529 = system: LXFL 529
DLD-1 = system: DLD-1
RXF 631 = system: RXF 631

| SMILES | GI50 (HOP-18) | GI50 (M19-MEL) | GI50 (KM-20L2) | GI50 (DMS-273) | GI50 (XF498) | GI50 (DMS-114) | GI50 (LXFL 529) | GI50 (DLD-1) | GI50 (RXF 631) |
| --- | --- | --- | --- | --- | --- | --- | --- | --- | --- |
| O=C(CSc1nnc(-c2ccc(/N=C\c3ccc(Cl)cc3)cc2)o1)Nc1ccccc1 | 54.2 µM (inactive) | 36.6 µM (inactive) | > 100 µM (inactive) | 27.3 µM (inactive) | > 100 µM (inactive) | 58.1 µM (inactive) | 50.6 µM (inactive) | – | – |
| COc1cc(-c2ccc(/N=N/c3c(S(=O)(=O)O)cc4cc(S(=O)(=O)O)cc(N)c4c3O)c(OC)c2)ccc1/N=N/c1c(S(=O)(=O)O)cc2cc(S(=O)(=O)O)cc(N)c2c1O | – | > 100 µM (inactive) | 35 µM (inactive) | > 74.6 µM (inactive) | 6.89 µM (inactive) | 73.1 µM (inactive) | – | > 94 µM (inactive) | – |
| COc1cc[n+](C)cc1 | > 100 µM (inactive) | > 100 µM (inactive) | > 100 µM (inactive) | > 100 µM (inactive) | > 100 µM (inactive) | > 100 µM (inactive) | – | > 100 µM (inactive) | – |
| O=c1cc(O)ccn1C1C=C(CO)C(O)C1O (centres undefined) | > 625 µM (inactive) | – | > 625 µM (inactive) | > 625 µM (inactive) | < 0.0625 µM (active) | > 625 µM (inactive) | – | > 625 µM (inactive) | – |
| C[C@H]1COC2(c3ccccc3)CCC(=O)N12 (some centres undefined) | > 100 µM (inactive) | > 100 µM (inactive) | > 100 µM (inactive) | > 100 µM (inactive) | > 100 µM (inactive) | > 100 µM (inactive) | – | > 100 µM (inactive) | – |
| CCCCCNC(=O)c1c(O)[nH]c(=S)[nH]c1=O | – | > 100 µM (inactive) | > 100 µM (inactive) | – | – | 60.7 µM (inactive) | > 100 µM (inactive) | – | > 100 µM (inactive) |
| Cc1c(/C=N/NC(=O)c2ccccc2O)c(=O)n(-c2ccccc2)n1C | > 100 µM (inactive) | > 100 µM (inactive) | > 100 µM (inactive) | 58.5 µM (inactive) | > 100 µM (inactive) | > 100 µM (inactive) | > 100 µM (inactive) | > 100 µM (inactive) | – |
| CC(=O)C(/N=N\C1CCC(S(=O)(=O)NB2N=CS2)CC1)C(=O)Nc1ccccc1C (centres undefined) | 29.3 µM (inactive) | 17.6 µM (inactive) | 15.9 µM (inactive) | 20.6 µM (inactive) | 16.9 µM (inactive) | 11.9 µM (inactive) | 14.2 µM (inactive) | 16.9 µM (inactive) | – |
